Test results published in PMC5120204, “Identification of an orally active small-molecule PTHR1 agonist for the treatment of hypoparathyroidism” (Nature Communications, 2016).
Where a chain is given by its changes, count along the chain named.

How the values were obtained:
[1] = target: T1, hPTHR1–hPTHR2 chimeric receptors (C1, C2, C3) and mutant hPTHR1s (M24, M25, M26, M414V, P415L, L416V) (Homo sapiens, UniProt Q03431, L416V/M414V/P415L); assay type: cell-based; conditions: mutant receptor M25 (M414, P415, L416 replaced)
T1 construct: expressed in transfected cells; host or cells: COS-7 (transient)
T1 sequence (Q03431 27-593 E93Y/D94P/K95Y/E96D/A97V/T99D/G100Y/S101A/M414V/P415L/L416V): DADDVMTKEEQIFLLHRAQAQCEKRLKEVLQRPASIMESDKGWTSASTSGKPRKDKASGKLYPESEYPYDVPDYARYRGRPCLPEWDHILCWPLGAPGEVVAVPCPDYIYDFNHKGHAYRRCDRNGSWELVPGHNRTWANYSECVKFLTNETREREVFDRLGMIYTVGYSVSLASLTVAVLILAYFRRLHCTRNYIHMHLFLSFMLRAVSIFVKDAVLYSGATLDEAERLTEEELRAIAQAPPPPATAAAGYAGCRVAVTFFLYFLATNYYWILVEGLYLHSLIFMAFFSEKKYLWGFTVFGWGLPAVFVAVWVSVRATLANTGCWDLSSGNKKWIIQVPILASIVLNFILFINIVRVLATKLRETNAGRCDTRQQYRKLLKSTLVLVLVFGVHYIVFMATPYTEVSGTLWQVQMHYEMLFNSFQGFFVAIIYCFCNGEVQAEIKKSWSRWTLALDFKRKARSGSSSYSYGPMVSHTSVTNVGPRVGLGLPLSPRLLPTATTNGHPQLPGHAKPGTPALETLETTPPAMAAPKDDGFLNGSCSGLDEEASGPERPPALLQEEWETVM
Protocol: (§1) COS-7 cells (ATCC) were seeded into a 96-well flat-bottomed plate (1.4 × 10^4 cells per 100 μl per well) and incubated overnight. The next day, the COS-7 cells were transfected by adding 10 μl of a mixture of hPTHR1, hPTHR2 or mutant hPTHR1 plasmid, rat PTHR1 or rat PTHR2 plasmid, or empty vector (0.1 μg per well), FuGENE HD Transfection Reagent (0.4 μl per well, Promega), and Opti-MEM I Reduced Serum Medium (10 μl per well, Life Technologies) to each well. […] The plate was placed in a 37 °C constant-temperature water bath for 20 min to allow the reaction to proceed. After incubation, the liquid in the wells was discarded, the wells were washed with the assay medium (100 μl per well), and the plate was frozen on dry ice. Next, 40 μl of 50 mmol l^−1 HCl was added to each well, and the plate was stored in a freezer set at ≤−20 °C. The cAMP concentrations were measured by using a cAMP EIA kit (GE Healthcare). EC50 values were determined from three independent experiments in duplicate by a non-linear regression Emax model (JMP ver.9.0.2, SAS Institute). The geometric mean of the EC50 values obtained in three experiments in duplicate was calculated using Microsoft Office Excel 2007. […]

[2] = target: T2, hPTHR1–hPTHR2 chimeric receptors (C1, C2, C3) and mutant hPTHR1s (M24, M25, M26, M414V, P415L, L416V) (Homo sapiens, UniProt Q03431, P415L); assay type: cell-based; conditions: single replacement P415L
T2 construct: expressed in transfected cells; host or cells: COS-7 (transient)
T2 sequence (Q03431 27-593 E93Y/D94P/K95Y/E96D/A97V/T99D/G100Y/S101A/P415L): T1 sequence (Q03431 27-593 E93Y/D94P/K95Y/E96D/A97V/T99D/G100Y/S101A/M414V/P415L/L416V) with V388M, V390L
Protocol: as §1

**Q.** `Cc1cc(N2C(=O)NC(=O)C2(C)C)cc(C)c1CCS(=O)(=O)N1CCC2(CC1)N=C(c1ccc(OC(F)(F)F)cc1)NC2=O` [PCO371, 1-{3,5-dimethyl-4-[2-({4-oxo-2-[4-(trifluoromethoxy)phenyl]-1,3,8-triazaspiro[4.5]dec-1-en-8-yl}sulfonyl)ethyl]phenyl}-5,5-dimethylimidazolidine-2,4-dione] was tested. Which cAMP increase [1] did it give?
**A.** Its cAMP increase is “lack of cAMP increase”.

**Q.** And the cAMP production [2]?
**A.** The cAMP production was “dramatic reduction”.
